Broadly, the IC50 is the concentration that gives 50% inhibition.

1 molecule from PMC9223764, “In Vitro Selection and Characterization of HIV-1 Variants with Increased Resistance to LP-40, Enfuvirtide-Based Lipopeptide Inhibitor” (International Journal of Molecular Sciences, 2022) can be followed below.

Assay type in all cases: cell-based
The test system of assay [1] is HIV-1 NL4-3 gp41 NDQEEDYN/L33S/I37T pseudovirus. The settings on record: Table 3. Here is the method:
(§1) We selected LP-40-induced drug resistance typical point mutations and combination mutation pseudoviruses to evaluate the current representative membrane fusion inhibitors.
(§2) The infectivity of HIV Env mutants and the inhibitory activities of membrane fusion inhibitors on mutants in TZM-bl cells were measured using a single-cycle infection assay as described previously. Briefly, the HIV pseudovirus was packed using an Env-coding plasmid, and pSG3ΔEnv was co-transfected into HEK293T cells. pSG3ΔEnv encodes an Env-defective, luciferase-expressing HIV-1 genome. After the pseudoviruses were harvested and filtrated, the amount of pseudoviruses was fixed via P24 antigen, and their infectivity was determined in TZM-bl cells. In order to measure the inhibitory activities of the inhibitors, inhibitors diluted serially 3-fold were mixed with an equal volume of pseudoviruses, and then 100 µL 1 × 10^5/mL TZM-bl cells were added to the mixture and incubated at 37 °C with 5% CO2 for 48 h. After that, TZM-bl cells were lysed using reporter lysis buffer, and IC50 values were calculated according to luciferase activity measured by luciferase assay reagents and a luminescence counter (Promega, Madison, WI, USA).

For assay [2], the system named is HIV-1 NL4-3 gp41 L33S/V38A/N42T pseudovirus. Conditions: Table 3. Here is the method:
as §1, §2

Assay [3] deals with HIV-1 NL4-3 gp41 NDQEEDYN/L33S/V38A/N42T pseudovirus. Conditions: Table 3. How it is done:
as §1, §2

Assay [4] has as its system HIV-1 NL4-3 gp41 L33S/I37T pseudovirus. Conditions: L33S/I37T; Table 3; TZM-bl cells, 48 h, luciferase; means, triplicate, repeated three times. How it is done: as §1, §2
In assay [5] the test system is HIV-1 NL4-3 gp41 V38A/N42T pseudovirus. Conditions: Table 3. How it is done: as §1, §2
For assay [6], the system named is HIV-1 NL4-3 gp41 NDQEEDYN pseudovirus. Conditions: Table 3. Here is the method: as §1, §2
The subject of assay [7] is HIV-1 NL4-3 gp41 I69V pseudovirus. The settings on record: Table 3. How it is done:
(§3) Viral RNA was extracted from the supernatant, and, after reverse transcription, the cDNA was amplified using PCR. These amplified DNA were connected to the T-Easy vector and transformed to Trans 2-Blue Chemically Competent Cells. These sequences were determined via sequencing. The expression plasmids, which contained different HIV-1NL4-3 Env mutants, were constructed using DNA assembly (NEBuilder® HiFi DNA Assembly Master Mix). In brief, two primers were used to amplify Env, and the other two primers were used to amplify the vector fragment. The products of PCR were purified with a 20–25 bp overlap in the terminal of Env and the vector fragment Env and the vector fragment were added to the DNA assembly master mix at […] for 15 min and then transformed to Trans 2-Blue Chemically Competent Cells. Additionally, a single-point mutation was generated using double-stranded DNA templates and a selection of mutants with a restriction enzyme (DpnI) as described previously.
as §2

For assay [8], the system named is HIV-1 NL4-3 gp41 L33S pseudovirus. Conditions: Table 3. Here is the method: as §3, §2
Assay [9] deals with HIV-1 NL4-3 gp41 I37T pseudovirus. The settings on record: Table 3. How it is done: as §3, §2
Assay [10] concerns HIV-1 NL4-3 pseudovirus (WT). Conditions: Table 3. How it is done: as §2

As to `CC[C@H](C)[C@H](NC(=O)[C@H](CCC(N)=O)NC(=O)[C@H](C)NC(=O)[C@H](CCC(N)=O)NC(=O)[C@H](CCC(=O)O)NC(=O)[C@H](CC(C)C)NC(=O)[C@H](CC(C)C)NC(=O)[C@H](C)NC(=O)[C@@H](NC(=O)[C@@H](NC(=O)[C@H](CCCCN)NC(=O)[C@H](CCC(N)=O)NC(=O)[C@H](CCC(=O)O)NC(=O)[C@H](Cc1c[nH]c2ccccc12)NC(=O)[C@H](CCC(=O)O)NC(=O)[C@H](CCC(N)=O)NC(=O)[C@H](Cc1c[nH]c2ccccc12)NC(C)=O)[C@@H](C)CC)[C@@H](C)O)C(=O)N[C@@H](CCC(N)=O)C(=O)N[C@@H](CCC(N)=O)C(=O)N[C@@H](CCC(=O)O)C(=O)N[C@@H](CCCCN)C(=O)N[C@@H](CC(N)=O)C(=O)N[C@@H](CCC(=O)O)C(=O)N[C@@H](Cc1ccc(O)cc1)C(=O)N[C@@H](CCC(=O)O)C(=O)N[C@@H](CC(C)C)C(=O)N[C@@H](CCC(N)=O)C(=O)N[C@@H](CCCCN)C(=O)N[C@@H](CC(C)C)C(=O)N[C@@H](CC(=O)O)C(=O)N[C@@H](CCCCN)C(=O)N[C@@H](Cc1c[nH]c2ccccc12)C(=O)N[C@@H](C)C(=O)N[C@@H](CO)C(=O)N[C@@H](CC(C)C)C(=O)N[C@@H](Cc1c[nH]c2ccccc12)C(=O)N[C@@H](CCC(=O)O)C(=O)N[C@@H](Cc1c[nH]c2ccccc12)C(=O)N[C@@H](Cc1ccccc1)C(N)=O` [T1249], the “Fold change in IC50” value in [1] (NDQEEDYN/L33S/I37T relative to WT NL4-3) was found to be 145.54 fold; in [2] (L33S/V38A/N42T relative to WT NL4-3), 227.04 fold; in assay [3] (NDQEEDYN/L33S/V38A/N42T relative to WT NL4-3), 301.12 fold; in [5] (V38A/N42T relative to WT NL4-3) it was 23.77 fold; in assay [6] (NDQEEDYN relative to WT NL4-3), 0.94 fold; in [7] (I69V relative to WT NL4-3) it was 0.82 fold. Also, the results for the “Fold change in IC50” value in assay [8] (L33S relative to WT NL4-3), in assay [9] (I37T relative to WT NL4-3) and in [10] (WT NL4-3 reference) were 11.41 fold, 1.21 fold and 1.00 fold, respectively. Besides, the 50% inhibitory concentration (IC50) was determined as 0.166 µM in assay [1] (NDQEEDYN/L33S/I37T, TZM-bl cells, 48 h, luciferase, means, triplicate, repeated three times); 0.259 µM in [2] (L33S/V38A/N42T, TZM-bl cells, 48 h, luciferase, means, triplicate, repeated three times); 0.343 µM in assay [3] (NDQEEDYN/L33S/V38A/N42T, TZM-bl cells, 48 h, luciferase, means, triplicate, repeated three times); 0.0815 µM in assay [4]; 0.0271 µM in assay [5] (V38A/N42T, TZM-bl cells, 48 h, luciferase, means, triplicate, repeated three times); 0.00107 µM in assay [6] (NDQEEDYN (E109N, N113D, E119Q, D121E, N125E, S129D, H132Y, S133N), TZM-bl cells, 48 h, luciferase, means, triplicate, repeated three times). For the same molecule, the IC50 in assay [7] (I69V, TZM-bl cells, 48 h, luciferase, means, triplicate, repeated three times) amounted to 0.00093 µM; in assay [8] (L33S, TZM-bl cells, 48 h, luciferase, means, triplicate, repeated three times), 0.013 µM; in assay [9] (I37T, TZM-bl cells, 48 h, luciferase, means, triplicate, repeated three times), 0.00138 µM; in assay [10] (WT NL4-3, TZM-bl cells, 48 h, luciferase, means, triplicate, repeated three times), 0.00114 µM.
